The subject of one assay is B. bifidum 32403. Nature of the assay: BioLector growth on carbon sources. In kind it is cell-based, Bifidobacterium bifidum. The note with it: for Ability to grow on carbon source: 1% carbon source in MRS without glucose, 37° C., up to 72 hours, anaerobic. The procedure:
(§1) Initial overnight cultures in de Man, Rogosa, and Sharpe (MRS) medium with glucose (Merck, cat #110661) were prepared in an anaerobic chamber with mixed gas (90% N2, 5% CO2, and 5% H2) at 37° C. From the overnight cultures strains were subcultured 1:100 or 1:10 (if slow growing) into fresh MRS (with glucose) and grown to mid-log (without shaking) in the anerobic chamber at 37° C. For the carbohydrate utilization analysis, a BioLector (automated culturomics equipment, Biosciences) was used. Cells were inoculated 1:100 into MRS (without glucose, Liofilchem Cat #610144) in a 48 well MTP plate (Biosciences) containing 1% of one of the following carbon sources: glucose, lactose, a HMO mixture (containing 2′FL, 2′FL: DFL (range of 6:1-8:1), 3FL, 3′SL, 6′SL, LNnT and LNT in equal portions), HMO mixture+lactose or sterile DI water (as no sugar control) in a final volume of 2 mL and grown in the BioLector at 37° C. for up to 72 hours, shaking at 400 rpm under anaerobic conditions and continuous nitrogen gas flow. If a strain grew on the HMO mixture the experiment was repeated with the individual HMOs of the mixture as carbon source. Change in biomass, pH, and dissolved oxygen was monitored every 20 minutes by the BioLector. A minimum of two replicates were completed for each carbon source. Samples were transferred to a 96 deep-well plate, spun down at 4000 rpm for 10 min at 4° C., and supernatants removed for analysis or stored at −80° C. until further analysis.

The test system of a further assay is B. bifidum HA-132. Nature of the assay: BioLector growth on carbon sources. The conditions noted are these: 1% carbon source in MRS without glucose, 37° C., up to 72 hours, anaerobic. In kind it is cell-based, Bifidobacterium bifidum. The procedure: as §1
The test system of assay [1] is B. bifidum R0071. Nature of the assay: BioLector growth on carbon sources. In kind it is cell-based, Bifidobacterium bifidum. On the set-up: key: +++: fast exponential growth reaching a plateau before 45 hours; ++: slower exponential growth reaching a plateau after 45 hours; +: slow almost linear growth, does not reach plateau during the time of fermentation; −: No significant growth for 50 h or more. The conditions noted are these: 1% carbon source in MRS without glucose, 37° C., up to 72 hours, anaerobic. The procedure: as §1

Assay [2] has as its system B. infantis HA-116. Nature of the assay: BioLector growth on carbon sources. The conditions noted are these: 1% carbon source in MRS without glucose, 37° C., up to 72 hours, anaerobic. On the set-up: key: +++: fast exponential growth reaching a plateau before 45 hours; ++: slower exponential growth reaching a plateau after 45 hours; +: slow almost linear growth, does not reach plateau during the time of fermentation; −: No significant growth for 50 h or more. In kind it is cell-based, Bifidobacterium infantis. The procedure: as §1

Assay [3] relates to B. infantis R0033. Kind of assay: BioLector growth on carbon sources. On the set-up: key: +++: fast exponential growth reaching a plateau before 45 hours; ++: slower exponential growth reaching a plateau after 45 hours; +: slow almost linear growth, does not reach plateau during the time of fermentation; −: No significant growth for 50 h or more. The note with it: 1% carbon source in MRS without glucose, 37° C., up to 72 hours, anaerobic. In kind it is cell-based, Bifidobacterium infantis. On the procedure: as §1

The subject of assay [4] is B. bifidum R0071. Nature of the assay: Metabolomics of culture supernatants (NMN, NAD+). In kind it is cell-based, Bifidobacterium bifidum. The procedure:
as §1, with “analysis. Sample supernatants were analyzed using metabolomics by Metabolon (NC, USA).” for “analysis.”

The subject of assay [5] is B. infantis HA-116. Kind of assay: Metabolomics of culture supernatants (NMN, NAD+). In kind it is cell-based, Bifidobacterium infantis. The procedure:
as §1, with “[…] Sample supernatants” for “Samples”, “analyzed using metabolomics by Metabolon (NC, USA).” for “transferred to a 96 deep-well plate, spun down at 4000 rpm for 10 min at 4° C., and supernatants removed for analysis or stored at −80° C. until further analysis.”

In assay [6] the test system is B. infantis R0033. Nature of the assay: Metabolomics of culture supernatants (NMN, NAD+). In kind it is cell-based, Bifidobacterium infantis. On the procedure: as §1, with “[…] Sample supernatants” for “Samples”, “analyzed using metabolomics by Metabolon (NC, USA).” for “transferred to a 96 deep-well plate, spun down at 4000 rpm for 10 min at 4° C., and supernatants removed for analysis or stored at −80° C. until further analysis.”

The test system of assay [7] is L. reuteri DSM 12246. Kind of assay: BioLector growth on carbon sources. In kind it is cell-based, Lactobacillus reuteri. The note with it: FIG. 3B. On the procedure:
as §1, with “Samples were transferred to a 96 deep-well plate, spun down at 4000 rpm for 10 min at 4° C., and supernatants removed for analysis or stored at −80° C. until further analysis.” left out

The subject of assay [8] is L. plantarum TIFN101. Nature of the assay: BioLector growth on carbon sources. The conditions noted are these: FIG. 3C. In kind it is cell-based, Lactobacillus plantarum. The procedure: as §1, with “Samples were transferred to a 96 deep-well plate, spun down at 4000 rpm for 10 min at 4° C., and supernatants removed for analysis or stored at −80° C. until further analysis.” left out

Assay [9] concerns L. reuteri DSM 12246. Nature of the assay: Metabolomics of culture supernatants (NMN, NAD+). In kind it is cell-based, Lactobacillus reuteri. On the procedure: as §1, with “[…] Sample supernatants” for “Samples”, “analyzed using metabolomics by Metabolon (NC, USA).” for “transferred to a 96 deep-well plate, spun down at 4000 rpm for 10 min at 4° C., and supernatants removed for analysis or stored at −80° C. until further analysis.”

Assay [10] has as its system L. plantarum TIFN101. Kind of assay: Metabolomics of culture supernatants (NMN, NAD+). In kind it is cell-based, Lactobacillus plantarum. On the procedure:
as §1, with “[…] Sample supernatants” for “Samples”, “analyzed using metabolomics by Metabolon (NC, USA).” for “transferred to a 96 deep-well plate, spun down at 4000 rpm for 10 min at 4° C., and supernatants removed for analysis or stored at −80° C. until further analysis.”

Molecules are shown by their SMILES.

In the case of `CC(=O)N[C@H]1[C@H](O[C@H]2[C@@H](O)[C@@H](CO)O[C@@H](O[C@H]3[C@H](O)[C@@H](O)C(O)O[C@@H]3CO)[C@@H]2O)O[C@H](CO)[C@@H](O[C@@H]2O[C@H](CO)[C@H](O)[C@H](O)[C@H]2O)[C@@H]1O` (mixture of isomers) [LNnT, lacto-N-neotetraose], the “Ability to grow on carbon source” value with B. bifidum 32403 is given as “+++ (fast exponential growth reaching a plateau before 45 hours)”; in the assay on B. bifidum HA-132 it was “+++ (fast exponential growth reaching a plateau before 45 hours)”; in the assay with B. bifidum R0071 [1], “++ (slower exponential growth reaching a plateau after 45 hours)”; in the assay with B. infantis HA-116 [2], “+”; in the assay on B. infantis R0033 [3] it was “−”. Moreover, in the assay on B. bifidum R0071 [4], the “NMN production (in words)” value is reported as “low amounts”.

As to `CC(=O)N[C@H]1[C@H]([C@H](O)[C@H](O)CO)O[C@@](O[C@H]2[C@@H](O)[C@@H](CO)O[C@@H](O[C@H]3[C@H](O)[C@@H](O)C(O)O[C@@H]3CO)[C@@H]2O)(C(=O)O)C[C@@H]1O` (some centres unmarked) [3′SL, 3′-sialyllactose], the “Ability to grow on carbon source” value was “+++ (fast exponential growth reaching a plateau before 45 hours)” in the assay with B. bifidum 32403; “+++ (fast exponential growth reaching a plateau before 45 hours)” with B. bifidum HA-132; “−” with B. bifidum R0071 [1]; “−” with B. infantis HA-116 [2]; “−” with B. infantis R0033 [3].

As to `CC(=O)N[C@H]1[C@H]([C@H](O)[C@H](O)CO)O[C@@](OC[C@H]2O[C@@H](O[C@H]3[C@H](O)[C@@H](O)[C@H](O)O[C@@H]3CO)[C@H](O)[C@@H](O)[C@H]2O)(C(=O)O)C[C@@H]1O` [6′SL, 6′-sialyllactose], the “Ability to grow on carbon source” value is listed as “+++ (fast exponential growth reaching a plateau before 45 hours)” in the assay with B. bifidum 32403; “+++ (fast exponential growth reaching a plateau before 45 hours)” in the assay on B. bifidum HA-132; “−” with B. bifidum R0071 [1]; “−” in the assay on B. infantis HA-116 [2]; “−” in the assay with B. infantis R0033 [3].

Regarding `C[C@@H]1O[C@@H](O[C@H]2[C@H](O[C@H]3[C@H](O[C@@H]4O[C@@H](C)[C@@H](O)[C@@H](O)[C@@H]4O)[C@@H](O)C(O)O[C@@H]3CO)O[C@H](CO)[C@H](O)[C@@H]2O)[C@@H](O)[C@H](O)[C@@H]1O` (some centres unmarked) [DFL, difucosyllactose], the “NAD+ production compared with growth on lactose (in words)” value with B. infantis HA-116 [5] and in the assay with B. infantis R0033 [6] was “a bit more” throughout.

Take `C[C@H](O)[C@@H](O)[C@@H](O)[C@H](O)C=O` [L-fucose]: the “Growth on carbon source (in words)” value with B. bifidum 32403 (BioLector, FIG. 3A, FIG. 6) is on record as “not able to grow”.

On to `CC(=O)N[C@H]1[C@H](O[C@H]2[C@@H](O)[C@@H](CO)O[C@@H](O[C@H]3[C@H](O)[C@@H](O)C(O)O[C@@H]3CO)[C@@H]2O)O[C@H](CO)[C@@H](O)[C@@H]1O[C@@H]1O[C@H](CO)[C@H](O)[C@H](O)[C@H]1O` (some centres unmarked) [LNT, lacto-N-tetraose], for which the “Ability to grow on carbon source” value was “+++ (fast exponential growth reaching a plateau before 45 hours)” in the assay on B. bifidum 32403; “+++ (fast exponential growth reaching a plateau before 45 hours)” with B. bifidum HA-132; “+++ (fast exponential growth reaching a plateau before 45 hours)” in the assay on B. bifidum R0071 [1]; “+” in the assay with B. infantis HA-116 [2]; “−” in the assay on B. infantis R0033 [3]. Besides, in the assay with B. bifidum R0071 [4], the “NMN production (in words)” value is given as “low amounts”.

For the compound `OC[C@H]1O[C@@H](O[C@H]2[C@H](O)[C@@H](O)C(O)O[C@@H]2CO)[C@H](O)[C@@H](O)[C@H]1O` (some centres unmarked) [Lactose, lactose], the “Ability to grow on carbon source” value is listed as “+++ (fast exponential growth reaching a plateau before 45 hours)” in the assay with B. bifidum 32403; “++ (slower exponential growth reaching a plateau after 45 hours)” with B. bifidum HA-132; “+++ (fast exponential growth reaching a plateau before 45 hours)” with B. bifidum R0071 [1]; “+++ (fast exponential growth reaching a plateau before 45 hours)” with B. infantis HA-116 [2]; “+++ (fast exponential growth reaching a plateau before 45 hours)” with B. infantis R0033 [3]. In addition, the “Growth on carbon source (in words)” value with L. reuteri DSM 12246 [7] and with L. plantarum TIFN101 [8] was “capable of growing” each time. In addition, the “NAD+ production (in words)” value in the assay with B. bifidum R0071 [4], in the assay on L. reuteri DSM 12246 [9] and with L. plantarum TIFN101 [10] was “able to produce NAD+” throughout.

These data come from patent publication US20260263533A1, “COMBINATION OF BIFIDOBACTERIUM AND FUCOSYLATED HMO FOR USE IN INCREASING NMN OR NAD+” (DSM IP Assets B.V., priority 2022, published 2026).
